Experimental data published in patent publication US9018351B2, “Peptide aptamers against tenascin C” (Industry-Academy Cooperation Foundation, priority 2007, dated 2015).

How the values were obtained:
[1] = system: tenascin C-induced cell migration, U118MG cells; assay: Wound scratch assay; assay type: cell-based, human; conditions: serum free medium, 18 hrs
Protocol: (§1) FIGS. 6A-6D represent reversion of tenascin-C-induced cell morphology and migration by the peptide aptamer. […] Magnification, ×100. FIG. 6B was the results that numbers of round cell was scored and presented as percentage. Four independent experiments were performed. FIG. 6C represented U118MG migration with #2 peptides or scrambled peptides. The data are representative of three independent experiments. SD, P<0.001 relative to no treated samples. […] Whole cell extract were prepared and with anti-β-catenin antibody. Anti-β-actin was used as control.
U118MG cells were grown until they become confluent on a 35 mm dish and were serum starved for 18 hrs in DMEM. A straight line was drawn with a marker on the outer surface of the dish bottom and an artificial wound was made by using a pipet tip. The dish was rinsed and then incubated with the serum free medium in the presence of #2 peptides or #2 scramble peptides. After 18 hrs incubation, cells were counted.

tenascin C [2] = assay: Immunofluorescence on frozen tumor xenograft tissue sections; assay type: binding, human; conditions: for staining of U118MG-derived tumor xenograft tissue sections: U118MG glioblastoma xenograft in nude mice, 10 μM biotin-labeled peptide or antibody 1:1000, O/N 4° C.
Protocol: FIGS. 4A-4C represent immunofluorescence detection for binding of #2 peptide aptamer to U118MG-derived tumor xenograft tissue. Frozen tissue sections were incubated at 4° C. for O/N with anti-tenascin C antibody (1:1000 dilution) (FIG. 4A), anti-β-catenin antibody (1:100 dilution) (FIG. 4B), 10 μM biotin-labeled peptide aptamer (#2) or scrambled peptide (#2 scr) (FIG. 4C). Tissues were counterstained with Hoechst33258. Arrows indicate examples of positively stained cells. Magnification, ×630. Results using a xenograft mouse model with HT-29 colon cancer cells are also shown (FIG. 4D).
A tumor xenograft was established by subcutaneous injection of 2×10^6 HT29 or U118MG cells into one flank of nude mice. When the tumor diameter reached approximately 9-10 mm, the mice were killed, and the tumor tissue was obtained and […] for storage at −80° C. Frozen sections 8-10 μm thick were cut, fixed with 3.7% paraformaldehyde for 15 min at room temperature, and permeabilized with 0.5% Triton X-100 in PBS. The cells were washed and blocked with 10% fetal bovine serum, 10% non fat dry milk and 3% BSA in PBS for 2 hrs at room temperature. They were stained with anti-tenascin C antibody (BC24; Sigma-Aldrich, Saint Louis, Miss., 1:1000 dilution), anti-β-catenin antibody (clone 14; BD Transduction Laboratories, Germany, 1:100 dilution), or biotin-labeled peptide for O/N at 4° C. Secondary FITC-conjugated anti-mouse IgG antibody (Sigma-Aldrich, Saint Louis, Miss., 1:1000 dilution) or TEXAS RED-conjugated streptavidin (Calbiochem, La Jolla, Calif., 1:1000 dilution) was used for 1 hr at room temperature in the dark. Cells were counterstained with Hoechst33258.

[3] = system: tenascin C-induced cell rounding; assay: Adhesion assay on fibronectin/tenascin C substratum; assay type: cell-based, human; conditions: glioblastoma cells on fibronectin/tenascin C substratum, 18 hrs
Protocol: as §1
Microtiter plates (6-well, Nunc, Roskilde, Denmark) were coated with 1 μg/cm^2 of fibrobectin or fibronectin and tenascin C for overnight at 4° C. The noncoated plastic surface was blocked with 1% heat-inactivated BSA in PBS. Before plating, cells were serum starved for 18 hrs in DMEM and trypsinized. Following soybean trypsin inhibitor treatment (100 μg/ml in PBS), cells were resuspended in serum-free medium and counted by hematocytometer. Approximately 1×10^5 cells were plated in each well and the selected peptide aptamer or scramble peptide was treated for 18 hrs, cells were observed under microscope.

[4] = system: endogenously expressed tenascin C in the cultured cell lines; assay: Immunocytochemistry of cultured cancer cell lines with biotin-labeled peptide; assay type: binding, human; conditions: 1 mM biotin-labeled peptide, 1 hr, room temperature; for staining of SW620 cells: SW620 (medium tenascin C expression)
Protocol: FIGS. 3A-3C represent binding pattern of the selected peptides to cultured cells. Cultured cells of SW620 (FIG. 3A), U251 (FIG. 3B) and HCT116 (FIG. 3C) were incubated at room temperature for 1 hr with 1 mM of biotin-labeled peptide aptamers (#1, #2), control peptide (NC), or peptide aptamer #2 (1 mM) plus anti-tenascin C antibody (1:1000 dilution). Nuclei were counterstained with Hoechst33258. Arrows indicate examples of positively stained cells. Magnification, ×1000 (FIG. 3A and FIG. 3C), ×630 (FIG. 3B). Cells were grown on coverslips, fixed with 3.7% paraformaldehyde for 15 min at room temperature, and permeabilized with 0.5% Triton X-100 in PBS. They were washed and blocked in 10% normal calf serum, 0.5% gelatin in PBS for 30 min at room temperature. Staining was carried out with biotin-labeled peptide for 1 hr at room temperature. Secondary TEXAS RED-conjugated streptavidin (Calbiochem, La Jolla, Calif., 1:200 dilution) was applied at room temperature for 50 min in the dark. The cells were counterstained with Hoechst33258. The present inventors utilized U251, SW620 and HCT116 cells as model cell lines for high, medium and no expression of tenascin C protein, respectively (FIG. 1). The biotin-labeled peptide aptamers were used to test whether they recognized the endogenously expressed tenascin C in the cultured cell lines. […] There was no signal with the negative peptide or when aptamer was omitted. Since the peptide aptamer #2 have high frequency and observed a higher level of staining, we used it in subsequent work. The level of staining with U251 cells was higher than with SW620 cells, which may reflect a higher level of tenascin C expression.

tenascin C [5] = biological target: T1, tenascin C (Homo sapiens, UniProt P24821); assay: Immunofluorescence analysis of lung tissue microarray; assay type: binding
T1 construct: a tissue microarray prepared with tissues from 52 lung cancer patients; from tissue; host or cells: paraffin-embedded human lung tumor and normal lung tissue (Seoul National University Bundang Hospital)
Protocol: FIGS. 5A-5D represent detection for binding of peptide aptamer #2 to tumor patient lung tissue. Paraffin-embedded lung tissue from an adenocarcinoma (FIG. 5A), squamous cell carcinoma (FIG. 5B), bronchioloalveolar carcinoma (FIG. 5C) and normal (FIG. 5D) tissue was incubated at 4° C. for O/N with anti-tenascin C antibody (1:1000 dilution) or with biotin-labeled peptide aptamer #2 (10 μM). Tissues were counterstained with Hoechst33258. Magnification, ×630.
The lung tissue microarray was constructed from archived paraffin blocks at Seoul National University Bundang Hospital. It is composed of 36 adenocarcinomas, 15 squamous cell carcinomas, 1 bronchioloalveolar carcinoma, and 1 normal lung. Sections were dewaxed in xylene and rehydrated in graded concentrations of ethanol and distilled water. For antigen retrieval, sections were heated for 20 min in Target Retrieval Solution, Tris/EDTA (pH 9; Dako) using a pressure cooker. Staining was carried out with anti-tenascin C antibody (BC24; Sigma-aldrich, Saint Louis, Mo., 1:1000 dilution) or biotin-labeled peptide for O/N at 4° C. Secondary anti-mouse FITC-conjugated IgG antibody or TEXAS RED-conjugated streptavidin was used for 1 hr at room temperature in the dark. Cells were counterstained with Hoechst33258.

T1 sequence (P24821 23-2201): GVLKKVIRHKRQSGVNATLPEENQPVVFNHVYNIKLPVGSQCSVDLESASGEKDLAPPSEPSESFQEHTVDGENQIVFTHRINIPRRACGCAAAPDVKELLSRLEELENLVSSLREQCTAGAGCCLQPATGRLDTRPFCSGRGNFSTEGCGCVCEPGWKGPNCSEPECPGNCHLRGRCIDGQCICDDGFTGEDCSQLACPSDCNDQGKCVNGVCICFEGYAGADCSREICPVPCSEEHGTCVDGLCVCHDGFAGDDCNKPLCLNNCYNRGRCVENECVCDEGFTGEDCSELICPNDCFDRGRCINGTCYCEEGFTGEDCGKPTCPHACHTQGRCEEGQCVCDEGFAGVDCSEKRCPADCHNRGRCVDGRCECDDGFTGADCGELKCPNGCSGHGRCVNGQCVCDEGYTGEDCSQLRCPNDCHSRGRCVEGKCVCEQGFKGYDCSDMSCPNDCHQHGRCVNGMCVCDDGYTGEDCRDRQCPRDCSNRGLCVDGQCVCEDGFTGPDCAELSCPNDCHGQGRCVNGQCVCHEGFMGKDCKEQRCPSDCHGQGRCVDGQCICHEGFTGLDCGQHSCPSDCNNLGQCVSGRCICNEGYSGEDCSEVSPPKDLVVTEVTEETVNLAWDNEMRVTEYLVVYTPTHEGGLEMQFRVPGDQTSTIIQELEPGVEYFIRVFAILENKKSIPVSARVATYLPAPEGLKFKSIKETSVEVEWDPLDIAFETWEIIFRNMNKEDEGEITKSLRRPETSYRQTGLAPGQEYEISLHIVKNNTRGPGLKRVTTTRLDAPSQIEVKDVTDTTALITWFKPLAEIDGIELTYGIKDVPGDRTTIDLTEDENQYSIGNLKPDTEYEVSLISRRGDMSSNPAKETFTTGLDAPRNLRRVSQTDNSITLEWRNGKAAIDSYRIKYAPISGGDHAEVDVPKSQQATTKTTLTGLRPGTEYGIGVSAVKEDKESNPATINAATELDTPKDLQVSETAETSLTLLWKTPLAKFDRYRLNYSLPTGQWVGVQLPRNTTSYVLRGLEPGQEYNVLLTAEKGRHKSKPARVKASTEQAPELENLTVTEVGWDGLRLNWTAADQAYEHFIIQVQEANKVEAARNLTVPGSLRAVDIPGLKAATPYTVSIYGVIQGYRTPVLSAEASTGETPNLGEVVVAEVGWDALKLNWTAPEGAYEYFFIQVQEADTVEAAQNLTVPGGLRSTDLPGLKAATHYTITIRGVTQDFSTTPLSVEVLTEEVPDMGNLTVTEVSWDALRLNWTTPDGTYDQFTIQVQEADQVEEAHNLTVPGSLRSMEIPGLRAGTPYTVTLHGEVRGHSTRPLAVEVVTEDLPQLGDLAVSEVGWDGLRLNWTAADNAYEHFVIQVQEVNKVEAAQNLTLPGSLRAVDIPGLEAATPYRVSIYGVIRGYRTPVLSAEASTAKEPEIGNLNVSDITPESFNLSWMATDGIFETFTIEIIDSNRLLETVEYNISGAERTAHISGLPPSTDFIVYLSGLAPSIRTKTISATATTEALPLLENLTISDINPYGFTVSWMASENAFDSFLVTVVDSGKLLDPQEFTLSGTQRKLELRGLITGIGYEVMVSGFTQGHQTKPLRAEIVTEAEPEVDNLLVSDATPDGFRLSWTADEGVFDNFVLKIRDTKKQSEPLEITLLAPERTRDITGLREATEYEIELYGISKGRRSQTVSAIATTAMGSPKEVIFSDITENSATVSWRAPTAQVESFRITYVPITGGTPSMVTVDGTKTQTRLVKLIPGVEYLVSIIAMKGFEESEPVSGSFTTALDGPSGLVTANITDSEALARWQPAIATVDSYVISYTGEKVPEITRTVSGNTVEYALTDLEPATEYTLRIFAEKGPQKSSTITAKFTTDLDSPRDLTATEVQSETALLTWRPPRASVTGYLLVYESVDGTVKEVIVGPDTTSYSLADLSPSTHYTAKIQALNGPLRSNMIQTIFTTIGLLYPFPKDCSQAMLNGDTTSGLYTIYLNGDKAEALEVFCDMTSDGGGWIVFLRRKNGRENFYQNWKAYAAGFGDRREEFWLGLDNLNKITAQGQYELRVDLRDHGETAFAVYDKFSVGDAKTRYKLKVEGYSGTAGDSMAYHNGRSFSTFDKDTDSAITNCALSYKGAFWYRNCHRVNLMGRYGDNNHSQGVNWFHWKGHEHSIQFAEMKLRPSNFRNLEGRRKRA

Row | Sequence | effect on tenascin C-induced cell migration [1] | staining of U118MG-derived tumor xenograft tissue sections (tenascin C [2]) | effect on tenascin C-induced rounding morphology [3] | staining of HT-29 tumor xenograft tissue sections (tenascin C [2]; HT-29 colon cancer xenograft (does not express tenascin C)) | staining of HCT116 cells ([4]; HCT116 (no tenascin C expression)) | staining of SW620 cells [4] | staining of U251 cells ([4]; U251 (high tenascin C expression)) | staining of normal lung tissue (tenascin C [5]; 1 normal lung, 10 μM biotin-labeled peptide, O/N 4° C.) | staining of lung cancer patient tissues (tenascin C [5]; 52 lung cancer patients, 10 μM biotin-labeled peptide or antibody 1:1000, O/N 4° C.)
1 | VSPKSHLKAHPFGGG [#2 scramble, scrambled form of peptide #2, control, reference compound] | No significant reduction in cell migration | no significant staining | no significant change |  |  |  |  |  | 
2 | FHKHKSPALSPVGGG [peptide aptamer #2] | significantly reduced | same prominent pattern of staining in the forms of spots and blobs | significant reversion of tenascin C-induced rounding morphology | no aptamer signal was detected | no signal was detected | characteristic staining pattern of spots or long streaks in a polarized region of the plasma membrane | stained two distinct areas of the U251 cells | No peptide aptamer #2 staining was detected | striking similarity of the staining patterns
3 | FHKPFFPKGSARGGG [peptide aptamer #1] |  |  |  |  |  | characteristic staining pattern of spots or long streaks in a polarized region of the plasma membrane |  |  | 
